Consider four molecules from ChEMBL document CHEMBL5137031, “The structure-based design of peptidomimetic inhibitors against SARS-CoV-2 3C like protease as Potent anti-viral drug candidate” (Eur J Med Chem, 2022).

The target of data set [1] is Replicase polyprotein 1ab (Severe acute respiratory syndrome coronavirus 2, UniProt P0DTD1). The experiment in a line: Inhibition of SARS-CoV-2 3CL protease expressed in Escherichia coli BL21 (DE3) cells assessed as change in relative fluorescence unit using MCA-TSAVLQSGFRK(DNP)M as substrate preincubated for 30 mins followed by substrate addition and measured after 2 hrs by microplate reader based FRET assay.

A further data set concerns A549. The experiment in a line: Cytotoxicity against human A549 cells assessed as inhibition of cell growth measured after 24 hrs by MTT assay. The data set is classed as toxicity, cell-based. The settings on record: a549, 24 h. (Tetrazolium dyes change colour on reduction, which living cells bring about.)
The subject of data set [2] is SARS-CoV-2. As to the kind of experiment: Antiviral activity against SARS-CoV-2 WIV04 infected in African green monkey Vero cells assessed as inhibition of viral proliferation measured at 24 hrs post infection by qRT-PCR analysis. The data set is classed as functional, organism-based. The settings on record: Severe acute respiratory syndrome coronavirus 2, WIV04, Vero.

In data set [3] the test system is SARS-CoV-2. The experiment in a line: Antiviral activity against SARS-CoV-2 WIV04 infected in African green monkey Vero cells assessed as log reduction in viral RNA at 10 uM measured at 24 hrs post infection by qRT-PCR analysis. The data set is classed as functional, Severe acute respiratory syndrome coronavirus 2. For orientation: Real-time PCR tracks product formation cycle by cycle.

The next data set relates to Vero. The experiment in a line: Cytotoxicity against African green monkey Vero cells assessed as reduction in cell viability incubated for 48 hrs by CCK8 assay. The data set is classed as toxicity, cell-based. The settings on record: chlorocebus sabaeus.

For `CC(C)C[C@H](NC(=O)[C@@H](NC(=O)c1ccc2ccccc2c1)C(C)C)C(=O)N[C@H](C=O)C[C@@H]1CCCNC1=O`, the IC50 in data set [1] was found to be 0.271 µM. The Activity entry in the data set with A549 and with Vero was “Non-Toxic” in each case. In the data set on SARS-CoV-2 [2], the EC50 is 1.36 µM. Also, in the data set on SARS-CoV-2 [3], the “log(activity)” value is reported as 2.

In the case of `CC(C)C[C@H](NC(=O)/C=C/c1ccccc1)C(=O)N[C@H](C=O)C[C@@H]1CCNC1=O`, the IC50 in data set [1] turned out to be 0.374 µM. For the same molecule, the Activity entry in the data set with A549 and in the data set on Vero was “Non-Toxic” each time. The EC50 in the data set with SARS-CoV-2 [2] was 1.06 µM. The “log(activity)” value in the data set on SARS-CoV-2 [3] is 2.

Consider `CC(C)C[C@H](NC(=O)/C=C/c1ccccc1)C(=O)N[C@H](C=O)C[C@@H]1CCCNC1=O`, for which, in data set [1], the IC50 was 0.321 µM. Also, the Activity result with A549 and with Vero was “Non-Toxic” each time. Moreover, the EC50 in the data set with SARS-CoV-2 [2] worked out at 1.51 µM. Also, the “log(activity)” value with SARS-CoV-2 [3] was 2.

With `CC(C)C[C@H](NC(=O)[C@H](CC1CCCCC1)NC(=O)/C=C/c1ccccc1)C(=O)N[C@H](C=O)C[C@@H]1CCCNC1=O`, the IC50 in data set [1] worked out at 1.5 µM. The Activity entry with A549 and in the data set on Vero was “Non-Toxic” each time. The EC50 in the data set with SARS-CoV-2 [2] amounted to 1.67 µM. In the data set with SARS-CoV-2 [3], the “log(activity)” value was 2.

A word on the IC50: it is the midpoint of a concentration-inhibition curve. Usually EC50 stands for the concentration that produces a half-maximal response.
